From patent US20260355196A1, “INHIBITORS AND DEGRADERS OF PIP4K PROTEIN” (Larkspur Biosciences, Inc., priority 2023, published 2026)

The compounds below were run against T1, PIP4K2C (Homo sapiens, UniProt Q8TBX8) (assay: HiBiT PIP4K2C degradation assay in MOLT-4 cells (endogenous PIP4K2C C-terminally tagged with HiBiT)). Conditions: 24 hours incubation, MOLT-4, top concentration 10 micromolar; read-out: HiBIT-degradation MOLT4 PIP4k2C 24 hours DC50.
T1 sequence (Q8TBX8 1-421): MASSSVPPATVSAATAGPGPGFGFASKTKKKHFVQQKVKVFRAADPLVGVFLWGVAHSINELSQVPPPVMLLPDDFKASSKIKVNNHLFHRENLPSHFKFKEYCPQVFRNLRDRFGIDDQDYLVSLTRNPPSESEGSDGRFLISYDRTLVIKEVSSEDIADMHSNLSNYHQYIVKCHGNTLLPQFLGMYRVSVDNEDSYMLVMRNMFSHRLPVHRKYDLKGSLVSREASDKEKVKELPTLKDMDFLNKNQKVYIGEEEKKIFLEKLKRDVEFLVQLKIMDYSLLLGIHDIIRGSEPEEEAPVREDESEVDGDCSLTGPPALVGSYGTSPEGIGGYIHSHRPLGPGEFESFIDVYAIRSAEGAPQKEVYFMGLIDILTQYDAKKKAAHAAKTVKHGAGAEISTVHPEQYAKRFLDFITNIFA
Assay type: cell-based
Set-up: untagged in primary human PBMCs and monocyte-derived dendritic cells
In short: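 In a CRISPR-engineered MOLT-4 clone carrying HiBiT-tagged PIP4K2C, degradation was assessed after 24 or 6 hours of dosing (10 micromolar top, 3-fold steps). Luminescence from lytic HiBiT detection was fitted to obtain DC50.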

DC50, < 500 nM:
Cn1c(=O)n(C2CCC(=O)NC2=O)c2ccc(C3CCN(CCC4CCN(C(=O)[C@@H]5CCC[C@H](Nc6ncc(Cl)c(-c7cccc(-c8ccccc8)c7)n6)C5)CC4)CC3)cc21 (stereo partly drawn) [Compound 280, 3-(5-(1-(2-(1-((1R,3S)-3-((4-([1,1′-biphenyl]-3-yl)-5-chloropyrimidin-2-yl)amino)cyclohexane-1-carbonyl)piperidin-4-yl)ethyl)piperidin-4-yl)-3-methyl-2-oxo-2,3-dihydro-1H-benzo[d]imidazol-1-yl)piperidine-2,6-dione]
Cn1c(=O)n(C2CCC(=O)NC2=O)c2ccc(C3CCN(CCC4CCN(C(=O)[C@H]5CCC[C@@H](Nc6ncc(Cl)c(-c7cccc(-c8ccccc8)c7)n6)C5)CC4)CC3)cc21 (stereo partly drawn) [Compound 281, 3-(5-(1-(2-(1-((1S,3R)-3-((4-([1,1′-biphenyl]-3-yl)-5-chloropyrimidin-2-yl)amino)cyclohexane-1-carbonyl)piperidin-4-yl)ethyl)piperidin-4-yl)-3-methyl-2-oxo-2,3-dihydro-1H-benzo[d]imidazol-1-yl)piperidine-2,6-dione]
O=C1CCC(c2ccc(N3CCC(O)(CC(=O)N4CCC(C(=O)N5CCC(Nc6ncc(Cl)c(-c7cccc(-c8ccc(F)cc8)c7)n6)CC5)CC4)CC3)c(F)c2)C(=O)N1 (stereo not shown) [Compound 282, 3-(4-(4-(2-(4-(4-((5-chloro-4-(4′-fluoro-[1,1′-biphenyl]-3-yl)pyrimidin-2-yl)amino)piperidine-1-carbonyl)piperidin-1-yl)-2-oxoethyl)-4-hydroxypiperidin-1-yl)-3-fluorophenyl)piperidine-2,6-dione]
O=C1CCC(Nc2ccc(N3CCC(N4CCC(C(=O)N[C@H]5CC[C@H](Nc6ncc(Cl)c(-c7cccc(-c8ccc(F)cc8)c7)n6)CC5)CC4)CC3)cc2)C(=O)N1 (stereo partly drawn) [Compound 285, trans-N-(4-((5-chloro-4-(4′-fluoro-[1,1′-biphenyl]-3-yl)pyrimidin-2-yl)amino)cyclohexyl)-1′-(4-((2,6-dioxopiperidin-3-yl)amino)phenyl)-[1,4′-bipiperidine]-4-carboxamide]
Cn1c(=O)n(C2CCC(=O)NC2=O)c2ccc(C3CCN(CC4CCN(CC(=O)N5CCC(Nc6ncc(F)c(-c7cccc(-c8ccccc8)c7)n6)CC5)CC4)CC3)cc21 (stereo not shown) [Compound 286, 3-(5-(1-((1-(2-(4-((4-([1,1′-biphenyl]-3-yl)-5-fluoropyrimidin-2-yl)amino)piperidin-1-yl)-2-oxoethyl)piperidin-4-yl)methyl)piperidin-4-yl)-3-methyl-2-oxo-2,3-dihydro-1H-benzo[d]imidazol-1-yl)piperidine-2,6-dione]
Cn1c(=O)n(C2CCC(=O)NC2=O)c2ccc(C3CCN(CC4CCN(CC(=O)N5CCC(Nc6ncc(Cl)c(-c7cccc(-c8ccc(F)cc8)c7)n6)CC5)CC4)CC3)cc21 (stereo not shown) [Compound 287, 3-(5-(1-((1-(2-(4-((5-chloro-4-(4′-fluoro-[1,1′-biphenyl]-3-yl)pyrimidin-2-yl)amino)piperidin-1-yl)-2-oxoethyl)piperidin-4-yl)methyl)piperidin-4-yl)-3-methyl-2-oxo-2,3-dihydro-1H-benzo[d]imidazol-1-yl)piperidine-2,6-dione]
Cn1c(=O)n(C2CCC(=O)NC2=O)c2ccc(C3CCN(CC4CCN(CC(=O)N5CCC(Nc6ncc(F)c(-c7cccc(-c8ccc(F)cc8)c7)n6)CC5)CC4)CC3)cc21 (stereo not shown) [Compound 288, 3-(5-(1-((1-(2-(4-((5-fluoro-4-(4′-fluoro-[1,1′-biphenyl]-3-yl)pyrimidin-2-yl)amino)piperidin-1-yl)-2-oxoethyl)piperidin-4-yl)methyl)piperidin-4-yl)-3-methyl-2-oxo-2,3-dihydro-1H-benzo[d]imidazol-1-yl)piperidine-2,6-dione]
